Test results published in US9815777B2, “Metformin salts to treat Type2 diabetes” (Jiva Pharma, Inc., priority 2013, dated 2017).
“Also recorded” adds a separate entry of the source. Structures can show the parent of a compound that is named as a salt.

Assays:
[1] = test system: Female db/db B6BKS (D) Leprdb/J mice; assay: Oral glucose tolerance test (GTT) on day 26 in db/db mice; type: in vivo, mouse
Excerpt: (§1) The anti-diabetic activity of Met.TZ was examined in a standard mouse model of diabetes, in comparison to the front-line anti-diabetes drug metformin hydrochloride. Female db/db B6BKS (D) Leprdb/J mice of approximately 6.5 to 9.5 weeks old were used for this study. This is a standard genetic model of obesity related insulin resistance and diabetes, and has served as model animal for the development and analysis of many metabolically active drugs.
(§2) Two treatment groups of six female mice were administered Met.TZ (MetX), at dose levels of 44.7 mg/kg/dose or 149 mg/kg/dose. Two treatment groups of six female mice were administered the test sample TZ (X), at dose levels of 21.2 mg/kg/dose or 70.8 mg/kg/dose Two treatment groups of six female mice were administered the positive control article, metformin hydrochloride, at dose levels of 30 mg/kg/dose or 100 mg/kg/dose. One additional group of six mice served as the control and received the test article vehicle, water. All drugs and vehicle solutions were administered daily during the study via oral gavage at a dose volume of 5 mL/kg. Body weights were measured three times per week, at the time of glucose measurements.
(§3) Blood samples for glucose analysis were collected three times per week beginning on Day 1 through Day 26. Animals were fasted for 6 hours prior to glucose testing. On Days 1 through 12, the test article, positive control, and vehicle were administered after completion of the glucose testing. On Days 15 through 24 the dosing occurred approximately 90 minutes prior to glucose testing. On Day 26, a glucose tolerance test (GTT) was performed. The animals were administered a glucose solution at a dose level of 2 g/kg and a dose volume of 5 mL/kg. Blood collection for glucose measurements were collected predose, and at 0.5, 1, 1.5, 2, and 3 hours following administration of the glucose solution.

[2] = test system: Female db/db B6BKS (D) Leprdb/J mice; assay: Fasting blood glucose in db/db mouse model of diabetes, daily oral gavage; type: in vivo; conditions: for Fasting Blood Glucose (% changes from vehicle control): 6 h fast; for Blood glucose lowering compared with the equivalent dose of metformin (in words): difference not statistically significant
Excerpt: as §1, §2, §3

Structure (SMILES): CN(C)C(=N)NC(=N)N.O=C1CSC(=O)N1 [Met.TZ, Metformin thiazolidine-2,4-dione-3-ide]
- GTT glucose curve versus control animals (Veh), significance ([1]; P<0.05 by ANOVA, means of 6 animals): significantly different than that from control animals
- Glucose levels post glucose administration compared with the equivalent dose of metformin (in words) ([1]; every time point, 149 mg/kg/day vs metformin 100 mg/kg/day, difference not statistically significant): lower glucose levels than animals treated with the equivalent dose of metformin
- Glucose tolerance (in words) ([1]; glucose 2 g/kg, 149 mg/kg/day): striking improvement in glucose tolerance
- Glucose lowering activity (in words) ([2]; 149 mg/kg (equivalent to metformin 100 mg/kg), from day 17 until termination of the study): striking glucose lowering activity
- Fasting Blood Glucose (% changes from vehicle control) ([2]; day 15 of treatment, 149 mg/kg/day oral gavage): −13%
- Fasting Blood Glucose (% changes from vehicle control) ([2]; day 17 of treatment, 149 mg/kg/day oral gavage): −51%
- Fasting Blood Glucose (% changes from vehicle control) ([2]; day 19 of treatment, 149 mg/kg/day oral gavage): −33%
- Fasting Blood Glucose (% changes from vehicle control) ([2]; day 22 of treatment, 149 mg/kg/day oral gavage): −52%
- Blood glucose lowering compared with the equivalent dose of metformin (in words) ([2]; db/db mice): more effective at lowering blood glucose than the equivalent dose of metformin; also recorded: lower glucose more than the equivalent dose of metformin hydrochloride alone
- Blood glucose lowering compared with the equivalent dose of metformin (in words) ([2]; db/db mice, listed as 2,4-thiazolidinedione with metformin as its salt (1:1)): enhanced the glucose lowering effect of metformin

Structure (SMILES): CN(C)C(=N)N=C(N)N [Metformin, metformin hydrochloride]
- Fasting Blood Glucose (% changes from vehicle control) ([2]; day 15 of treatment, 100 mg/kg/day oral gavage): −9%
- Fasting Blood Glucose (% changes from vehicle control) ([2]; day 17 of treatment, 100 mg/kg/day oral gavage): −34%
- Fasting Blood Glucose (% changes from vehicle control) ([2]; day 19 of treatment, 100 mg/kg/day oral gavage): −7%
- Fasting Blood Glucose (% changes from vehicle control) ([2]; day 22 of treatment, 100 mg/kg/day oral gavage): −43%

Structure (SMILES): O=C1CSC(=O)N1 [TZ, 2,4-thiazolidinedione]
- Fasting Blood Glucose (% changes from vehicle control) ([2]; day 15 of treatment, 70.8 mg/kg/day oral gavage): +34%
- Fasting Blood Glucose (% changes from vehicle control) ([2]; day 17 of treatment, 70.8 mg/kg/day oral gavage): −22%
- Fasting Blood Glucose (% changes from vehicle control) ([2]; day 19 of treatment, 70.8 mg/kg/day oral gavage): +9%
- Fasting Blood Glucose (% changes from vehicle control) ([2]; day 22 of treatment, 70.8 mg/kg/day oral gavage): −19%
- Hypoglycemic activity without any metformin (in words) ([2]; db/db mice, same model): little effect on glucose lowering
